Legend:
Assay type in all cases: in vivo
[1] = system: Echinochloa crus-galli (ECHCG); assay: Herbicidal pre-emergence action, section A (Table A3); details: visual grading after ca. 3 weeks vs untreated controls; for pre-emergence activity against ECHCG in %: application rate 1280 g/ha
From the text: (§1) Seeds of mono- and dicotyledonous weed plants were sown in plastic pots (double sowings with one species of mono- and one species of dicotyledonous weed plants per pot), in sandy loam, and covered with soil. The compounds according to the invention, formulated in the form of wettable powders (WP) or as emulsifiable concentrates (EC), were applied to the surface of the covering soil as aqueous suspension or emulsion, with the addition of 0.5% of an additive, at an application rate of 600 l of water per hectare (converted). Following treatment, the pots were placed in a greenhouse and kept under optimum growth conditions for the test plants. The visual grading of the damage to the test plants was carried out after ca. 3 weeks in comparison to untreated controls (herbicidal effect in percent (%): 100% effect=plants have died off, 0% effect=as control plants).

[2] = system: Kochia scoparia (KCHSC); assay: Herbicidal pre-emergence action, section A (Table A4); details: visual grading after ca. 3 weeks vs untreated controls
From the text: as §1

[3] = system: Matricaria inodora (MATIN); assay: Herbicidal pre-emergence action, section A (Table A6); details: visual grading after ca. 3 weeks vs untreated controls
From the text: as §1

[4] = system: Poa annua (POAAN); assay: Herbicidal pre-emergence action, section A (Table A7); details: visual grading after ca. 3 weeks vs untreated controls
From the text: as §1

[5] = system: Setaria viridis (SETVI); assay: Herbicidal pre-emergence action, section A (Table A8)
From the text: as §1

[6] = system: Echinochloa crus-galli (ECHCG); assay: Herbicidal post-emergence action, section B (Table B3); details: rated visually after about 3 weeks
Procedure: (§2) Seeds of mono- and dicotyledonous weed plants were placed in plastic pots in sandy loam soil (doubly sown with in each case one species of mono- or dicotyledonous weed plants per pot), covered with soil and cultivated in a greenhouse under controlled growth conditions. 2 to 3 weeks after sowing, the test plants were treated at the one-leaf stage. The compounds of the invention, formulated in the form of wettable powders (WP) or as emulsion concentrates (EC), were applied onto the green parts of the plants as aqueous suspension or emulsion with addition of 0.5% additive at a water application rate of 600 liters per hectare (converted). After the test plants had been kept in the greenhouse under optimum growth conditions for about 3 weeks, the activity of the preparations was rated visually in comparison to untreated controls. For example, 100% activity=the plants have died, 0% activity=like control plants.

[7] = system: Kochia scoparia (KCHSC); assay: Herbicidal post-emergence action, section B (Table B4); details: application rate 1280 g/ha; visual rating about 3 weeks after treatment vs untreated controls
Procedure: as §2

[8] = system: Veronica persica (VERPE); assay: Herbicidal post-emergence action, section B (Table B10); details: application rate 1280 g/ha; visual rating about 3 weeks after treatment vs untreated controls
Procedure: as §2

[9] = system: Amaranthus retroflexus (AMARE); assay: Herbicidal post-emergence action, section B (Table B11); details: application rate 1280 g/ha, visual rating about 3 weeks after treatment vs untreated controls
Procedure: as §2

[10] = system: Stellaria media (STEME); assay: Herbicidal pre-emergence action, section A (Table A9)
From the text: as §1

[11] = system: Veronica persica (VERPE); assay: Herbicidal pre-emergence action, section A (Table A10)
From the text: as §1

[12] = system: Amaranthus retroflexus (AMARE); assay: Herbicidal pre-emergence action, section A (Table A11)
From the text: as §1

[13] = system: Alopecurus myosuroides (ALOMY); assay: Herbicidal pre-emergence action, section A (Table A2); details: application rate 1280 g/ha; visual grading after ca. 3 weeks vs untreated controls
From the text: as §1

[14] = system: Lolium rigidum (LOLRI); assay: Herbicidal pre-emergence action, section A (Table A5); details: visual grading after ca. 3 weeks vs untreated controls
From the text: as §1

[15] = system: Digitaria sanguinalis (DIGSA); assay: Herbicidal pre-emergence action, section A (Table A12)
From the text: as §1

[16] = system: Stellaria media (STEME); assay: Herbicidal post-emergence action, section B (Table B9); details: application rate 1280 g/ha, visual rating about 3 weeks after treatment vs untreated controls
Procedure: as §2

[17] = system: Setaria viridis (SETVI); assay: Herbicidal post-emergence action, section B (Table B8); details: application rate 1280 g/ha, visual rating about 3 weeks after treatment vs untreated controls
Procedure: as §2

Structure (SMILES): CCOC(=O)c1cc2c(nc1-c1ccccc1F)NCS2 [Example I-004]
- pre-emergence activity against ECHCG in % [1]: 100%
- pre-emergence activity against KCHSC in % ([2]; application rate 1280 g/ha): 90%
- pre-emergence activity against MATIN in % ([3]; application rate 1280 g/ha): 90%
- pre-emergence activity against POAAN in % ([4]; application rate 1280 g/ha): 100%
- pre-emergence activity against SETVI in % ([5]; application rate 1280 g/ha): 100%
- post-emergence activity against ECHCG in % ([6]; application rate 1280 g/ha): 90%
- post-emergence activity against KCHSC in % [7]: 90%
- post-emergence activity against VERPE in % [8]: 90%
- post-emergence activity against AMARE in % [9]: 100%

Structure (SMILES): CCCS(=O)(=O)N1CSc2cc(C)c(-c3cccc(Cl)c3F)nc21 [Example I-112]
- pre-emergence activity against POAAN in % ([4]; application rate 1280 g/ha): 100%
- pre-emergence activity against SETVI in % ([5]; application rate 1280 g/ha): 90%
- pre-emergence activity against STEME in % ([10]; application rate 1280 g/ha): 90%
- pre-emergence activity against VERPE in % ([11]; application rate 1280 g/ha): 90%
- pre-emergence activity against AMARE in % ([12]; application rate 1280 g/ha): 90%
- post-emergence activity against ECHCG in % ([6]; application rate 320 g/ha): 100%

Structure (SMILES): CS(=O)(=O)N1CSc2cc(Br)c(-c3cccc(Cl)c3F)nc21 [Example I-116]
- pre-emergence activity against ALOMY in % [13]: 90%
- pre-emergence activity against SETVI in % ([5]; application rate 1280 g/ha): 90%
- pre-emergence activity against VERPE in % ([11]; application rate 1280 g/ha): 90%
- post-emergence activity against KCHSC in % [7]: 90%

Structure (SMILES): CCCS(=O)(=O)N1CSc2cc(C)c(-c3cccc(F)c3F)nc21 [Example I-145]
- pre-emergence activity against ALOMY in % [13]: 90%
- pre-emergence activity against ECHCG in % [1]: 100%
- pre-emergence activity against KCHSC in % ([2]; application rate 320 g/ha): 90%
- pre-emergence activity against LOLRI in % ([14]; application rate 1280 g/ha): 100%
- pre-emergence activity against MATIN in % ([3]; application rate 1280 g/ha): 90%
- pre-emergence activity against POAAN in % ([4]; application rate 320 g/ha): 100%
- pre-emergence activity against SETVI in % ([5]; application rate 1280 g/ha): 100%
- pre-emergence activity against STEME in % ([10]; application rate 320 g/ha): 90%
- pre-emergence activity against VERPE in % ([11]; application rate 1280 g/ha): 90%
- pre-emergence activity against AMARE in % ([12]; application rate 1280 g/ha): 90%
- pre-emergence activity against DIGSA in % ([15]; application rate 1280 g/ha): 100%
- post-emergence activity against ECHCG in % ([6]; application rate 1280 g/ha): 90%
- post-emergence activity against STEME in % [16]: 90%

Structure (SMILES): Cc1cc2c(nc1-c1cccc(F)c1F)N(S(C)(=O)=O)CS2 [Example I-147, 5-(2,3-difluorophenyl)-6-methyl-3-(methylsulfonyl)-2,3-dihydro[1,3]thiazolo[4,5-b]pyridine]
- pest or weed control at 320 g/ha ([1]; Echinochloa crus-galli, pre-emergence, 504 h, application rate 320 g/ha, read-out: pre-emergence activity against ECHCG in %): 100%
- pest or weed control at 320 g/ha ([2]; Bassia scoparia, pre-emergence, 504 h, application rate 320 g/ha, read-out: pre-emergence activity against KCHSC in %): 90%
- pest or weed control at 1280 g/ha ([14]; Lolium rigidum, pre-emergence, 504 h, application rate 1280 g/ha, read-out: pre-emergence activity against LOLRI in %): 90%
- pest or weed control at 1280 g/ha ([3]; Tripleurospermum inodorum, pre-emergence, 504 h, application rate 1280 g/ha, read-out: pre-emergence activity against MATIN in %): 90%
- pest or weed control at 320 g/ha ([4]; Poa annua, pre-emergence, 504 h, application rate 320 g/ha, read-out: pre-emergence activity against POAAN in %): 100%
- pest or weed control at 320 g/ha ([5]; Setaria viridis, 504 h, application rate 320 g/ha, read-out: pre-emergence activity against SETVI in %): 100%
- pest or weed control at 1280 g/ha ([10]; Stellaria media, 504 h, application rate 1280 g/ha, read-out: pre-emergence activity against STEME in %): 90%
- pest or weed control at 320 g/ha ([11]; Veronica persica, 504 h, application rate 320 g/ha, read-out: pre-emergence activity against VERPE in %): 90%
- pest or weed control at 320 g/ha ([12]; Amaranthus retroflexus, 504 h, application rate 320 g/ha, read-out: pre-emergence activity against AMARE in %): 90%
- pest or weed control at 320 g/ha ([15]; Digitaria sanguinalis, 504 h, application rate 320 g/ha, read-out: pre-emergence activity against DIGSA in %): 90%
- pest or weed control at 1280 g/ha ([17]; Setaria viridis, post-emergence, 504 h, read-out: post-emergence activity against SETVI in %): 90%
- pest or weed control at 1280 g/ha ([16]; Stellaria media, post-emergence, 504 h, read-out: post-emergence activity against STEME in %): 90%
- pest or weed control at 1280 g/ha ([9]; Amaranthus retroflexus, post-emergence, 504 h, read-out: post-emergence activity against AMARE in %): 90%

Structure (SMILES): COC(=O)CCC(=O)N1CSc2cc(C)c(-c3cccc(F)c3F)nc21 [Example I-153]
- pre-emergence activity against ECHCG in % [1]: 90%
- pre-emergence activity against KCHSC in % ([2]; application rate 320 g/ha): 90%
- pre-emergence activity against LOLRI in % ([14]; application rate 320 g/ha): 90%
- pre-emergence activity against MATIN in % ([3]; application rate 1280 g/ha): 90%
- pre-emergence activity against POAAN in % ([4]; application rate 1280 g/ha): 100%
- pre-emergence activity against SETVI in % ([5]; application rate 1280 g/ha): 100%
- pre-emergence activity against STEME in % ([10]; application rate 320 g/ha): 90%
- pre-emergence activity against VERPE in % ([11]; application rate 1280 g/ha): 90%
- pre-emergence activity against AMARE in % ([12]; application rate 320 g/ha): 90%
- pre-emergence activity against DIGSA in % ([15]; application rate 320 g/ha): 90%
- post-emergence activity against SETVI in % [17]: 90%
- post-emergence activity against STEME in % [16]: 90%

Structure (SMILES): CC(=O)N1CSc2cc(C)c(-c3cc(F)ccc3F)nc21 [Example I-168]
- pre-emergence activity against ALOMY in % [13]: 90%
- pre-emergence activity against ECHCG in % [1]: 100%
- pre-emergence activity against KCHSC in % ([2]; application rate 320 g/ha): 90%
- pre-emergence activity against LOLRI in % ([14]; application rate 320 g/ha): 90%
- pre-emergence activity against MATIN in % ([3]; application rate 320 g/ha): 90%
- pre-emergence activity against POAAN in % ([4]; application rate 320 g/ha): 100%
- pre-emergence activity against SETVI in % ([5]; application rate 320 g/ha): 100%
- pre-emergence activity against STEME in % ([10]; application rate 320 g/ha): 90%
- pre-emergence activity against VERPE in % ([11]; application rate 320 g/ha): 90%
- pre-emergence activity against AMARE in % ([12]; application rate 320 g/ha): 90%
- pre-emergence activity against DIGSA in % ([15]; application rate 320 g/ha): 100%
- post-emergence activity against KCHSC in % [7]: 90%
- post-emergence activity against VERPE in % [8]: 90%

— patent publication US20240381872A1, “SUBSTITUTED 2,3-DIHYDRO[1,3]THIAZOLO[4,5-B]PYRIDINES, SALTS THEREOF AND THEIR USE AS HERBICIDALLY ACTIVE SUBSTANCES” (BAYER AKTIENGESELLSCHAFT, priority 2021, published 2024)
